In US8741897B2, “Glucocorticoid mimetics, methods of making them, pharmaceutical compositions and uses thereof” (Boehringer Ingelheim Pharmaceuticals Inc., priority 2003, dated 2014):

How the values were obtained:
[1] = molecular target: T1, human glucocorticoid receptor (GR) complex (Homo sapiens, UniProt P04150); experiment: Glucocorticoid receptor competitive binding assay (fluorescence polarization, TAMRA-labeled dexamethasone probe); details: compounds of Formula (IA)
T1 construct: made in house; host or cells: insect expression system (baculovirus lysate)
T1 sequence (P04150 1-777): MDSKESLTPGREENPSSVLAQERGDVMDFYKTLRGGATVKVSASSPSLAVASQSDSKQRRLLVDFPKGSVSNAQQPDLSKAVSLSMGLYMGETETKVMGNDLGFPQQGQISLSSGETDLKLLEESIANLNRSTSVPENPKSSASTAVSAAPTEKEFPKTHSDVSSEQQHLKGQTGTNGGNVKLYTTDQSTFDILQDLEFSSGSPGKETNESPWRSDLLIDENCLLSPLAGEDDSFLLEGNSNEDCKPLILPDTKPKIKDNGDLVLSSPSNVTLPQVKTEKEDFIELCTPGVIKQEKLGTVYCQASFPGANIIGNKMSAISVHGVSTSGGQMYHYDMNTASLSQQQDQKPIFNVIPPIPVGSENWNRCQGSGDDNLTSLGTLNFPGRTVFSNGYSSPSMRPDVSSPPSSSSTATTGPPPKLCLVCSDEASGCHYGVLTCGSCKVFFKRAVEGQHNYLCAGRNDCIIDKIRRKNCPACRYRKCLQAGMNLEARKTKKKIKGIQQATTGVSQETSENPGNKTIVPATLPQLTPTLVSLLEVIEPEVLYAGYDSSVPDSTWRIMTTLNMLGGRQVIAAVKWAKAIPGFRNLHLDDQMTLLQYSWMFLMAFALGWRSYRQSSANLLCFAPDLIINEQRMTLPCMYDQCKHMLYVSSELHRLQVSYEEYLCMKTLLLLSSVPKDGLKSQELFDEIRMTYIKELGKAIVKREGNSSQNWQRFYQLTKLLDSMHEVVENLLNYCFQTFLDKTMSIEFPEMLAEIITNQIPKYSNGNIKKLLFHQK
Summary of the method: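 Fluorescence-polarization competition against 15 nM TAMRA-dexamethasone (stock added to the mix) for human GR complex from baculovirus lysate diluted 1:170. Buffer: 10 mM TES, 50 mM KCl, 20 mM Na2MoO4, 1.5 mM EDTA, 0.04% CHAPS, 10% glycerol, 1 mM DTT, pH 7.4. IC50 from 4-parameter logistic fit.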

[2] = test system: glucocorticoid receptor function; experiment: one or more of the above assays (GR binding and glucocorticoid receptor cell assays: aromatase, IL-6, TAT, MMTV-Luc, IL-8, ICAM-Luc); assay type: cell-based; details: assay not specified per compound

Row | Compound | activity in the GR binding assay [1] | activity as agonists of the glucocorticoid receptor function in one or more of the above assays [2]
1 | Cc1cc(CC(O)(CC(C)(C)c2cc(F)ccc2C)C(F)(F)F)cc(C)n1 (stereo not shown) [2-(2,6-Dimethylpyridin-4-ylmethyl)-1,1,1-trifluoro-4-(5-fluoro-2-methylphenyl)-4-methylpentan-2-ol] | potent activity | potent agonists
2 | Cc1cc(F)ccc1C(C)(C)CC(O)(Cc1ccnc2ccccc12)C(F)(F)F (stereo not shown) [1,1,1-Trifluoro-4-(4-fluoro-2-methylphenyl)-4-methyl-2-quinolin-4-ylmethylpentan-2-ol] | potent activity | potent agonists
3 | Cc1ccc(F)cc1C(C)(C)CC(O)(Cc1cc2ncncc2[nH]1)C(F)(F)F (stereo not shown) [1,1,1-Trifluoro-4-(5-fluoro-2-methylphenyl)-4-methyl-2-(5H-pyrrolo[3,2-d]pyrimidin-6-ylmethyl)pentan-2-ol] | potent activity | potent agonists
4 | Cc1cc(CC(O)(CC(C)(C)c2cccc(F)c2)C(F)(F)F)cc(C)n1 (stereo not shown) [2-(2,6-Dimethylpyridin-4-ylmethyl)-1,1,1-trifluoro-4-(3-fluorophenyl)-4-methylpentan-2-ol] | potent activity | potent agonists
5 | CC(C)(CC(O)(Cc1cc(Cl)nc(Cl)c1C#N)C(F)(F)F)c1cc(F)ccc1O (stereo not shown) [2,6-Dichloro-4-[4-(5-fluoro-2-hydroxyphenyl)-2-hydroxy-4-methyl-2-trifluoromethylpentyl]nicotinonitrile] | potent activity | potent agonists
6 | CC(C)(CC(O)(Cc1ccnc2ccccc12)C(F)(F)F)c1ccc(C(F)(F)F)cc1 (stereo not shown) [1,1,1-Trifluoro-4-methyl-2-quinolin-4-ylmethyl-4-(4-trifluoromethylphenyl)pentan-2-ol] | potent activity | potent agonists

Continued, in another order:

Row | activity in the GR binding assay [1] | Compound | activity as agonists of the glucocorticoid receptor function in one or more of the above assays [2]
7 | potent activity | Cc1ccc(O)c(C(C)(C)CC(O)(Cc2cc3ccccc3[nH]2)C(F)(F)F)c1 (stereo not shown) [4-Methyl-2-[4,4,4-trifluoro-3-hydroxy-3-(1H-indol-2-ylmethyl)-1,1-dimethylbutyl]phenol] | potent agonists
8 | potent activity | CC(C)(CC(O)(Cc1ccnc2ccccc12)C(F)(F)F)c1cc(F)ccc1O (stereo not shown) [4-Fluoro-2-(4,4,4-trifluoro-3-hydroxy-1,1-dimethyl-3-quinolin-4-ylmethylbutyl)phenol] | potent agonists
9 | potent activity | CC(C)(CC(O)(Cc1cc2cc([N+](=O)[O-])ccc2[nH]1)C(F)(F)F)c1cc(F)ccc1O (stereo not shown) [4-Fluoro-2-[4,4,4-trifluoro-3-hydroxy-1,1-dimethyl-3-(5-nitro-1H-indol-2-ylmethyl)butyl]phenol] | potent agonists
10 | potent activity | CC(C)(CC(O)(Cc1cc2ncncc2[nH]1)C(F)(F)F)c1cc(Cl)cc2c1OCC2 (stereo not shown) [4-(5-Chloro-2,3-dihydrobenzofuran-7-yl)-1,1,1-trifluoro-4-methyl-2-(5H-pyrrolo[3,2-d]pyrimidin-6-ylmethyl)pentan-2-ol] | potent agonists
11 | potent activity | CC(C)(CC(O)(Cc1cc2ccc(C#N)cc2[nH]1)C(F)(F)F)c1cc(F)ccc1O (stereo not shown) [2-[4-(5-Fluoro-2-hydroxyphenyl)-2-hydroxy-4-methyl-2-trifluoromethylpentyl]-1H-indole-6-carbonitrile] | potent agonists
